Results from paper PMC9118204, “Novel Dihydropyrimidinone Derivatives as Potential P-Glycoprotein Modulators” (ACS Omega, 2022).

What was measured:
[1] = tested on: colorectal adenocarcinoma (Caco-2) cell line; experiment: MTT cytotoxicity assay against Caco-2 cells; format: cell-based; conditions: for cytotoxic activity in words: halogen in the N-phenyl substituent
Procedure: The colorectal adenocarcinoma Caco-2 cell line was generously provided by the Zydus Research Centre, Ahmedabad, Gujarat, India. These cells were maintained in DMEM (Hi-Media) containing 25 mM HEPES buffer, 1000 mg/L glucose, L-glutamine, sodium bicarbonate, and sodium pyruvate and supplemented with 20% heat-inactivated FBS (cell clone), 1% (v/v) minimal essential medium nonessential amino acids (Hi-Media), antibiotic, and antimycotic (penicillin, streptomycin, and amphotericin B; Hi-Media) in a humidified atmosphere of 5% CO2 at 37 °C. […] Caco-2 VB cells, which overexpress hPGP, were generated by growing Caco-2 cells in the presence of 1 μg/mL vinblastine. The drug was removed from the culture medium 2–3 days prior to using the Caco-2 VB cells in the biological assays.
Caco-2 cells were cultured in 96-well plates until they reached 70–80% confluency and then treated with the TRZ-DHPM derivatives (0.1–100 μM). Cytotoxicity was determined using an MTT (3-(4,5-dimethylthiazol-2-yl)-2,5-diphenyltetrazolium bromide) assay as described previously.[31]

[2] = target: T1, human P-glycoprotein (hPgp) (Homo sapiens, UniProt P08183); experiment: hPgp-mediated calcein-AM efflux assay in Caco-2 VB cells; format: cell-based; conditions: for EC50: Caco-2 VB cells, calcein-AM, read-out: inhibition of calcein extrusion, EC50
T1 construct: Caco-2 VB cells, which overexpress hPGP, were generated by growing Caco-2 cells in the presence of 1 μg/mL vinblastine; endogenous in cells; host or cells: Caco-2 VB (vinblastine-resistant human colorectal adenocarcinoma Caco-2 cells)
Procedure: (§1) In this assay, hydrolysis of intracellular calcein-AM to calcein by endogenous cellular esterases causes the cell to become highly fluorescent (see Figure S1 in Supporting Information).
The colorectal adenocarcinoma Caco-2 cell line was generously provided by the Zydus Research Centre, Ahmedabad, Gujarat, India. […] Caco-2 VB cells, which overexpress hPGP, were generated by growing Caco-2 cells in the presence of 1 μg/mL vinblastine. The drug was removed from the culture medium 2–3 days prior to using the Caco-2 VB cells in the biological assays.
Each well contained 100 μL of cells in culture medium, 50 μL of a solution containing the TRZ-DPHM derivative, and 50 μL of calcein-AM (total volume, 200 μL). The final concentration of putative hPGP inhibitor in each assay ranged from 0.01 to 30 μg/mL. […] Caco-2 cells were used as a negative control (Figure S1). […] PBS was used for all dilutions. All experiments were performed in triplicate.
The effectiveness of inhibitors on Pgp efflux activity, i.e., calcein retention was calculated by the following equation [drawing 1] where FT is the fluorescence of treated cells and FU is the fluorescence of untreated cells.

hPgp = target: T2, hPgp (Homo sapiens, UniProt P08183); experiment: Fluorescence microscopy imaging of intracellular calcein in Caco-2 VB cells; format: cell-based; conditions: for intracellular calcein retention by fluorescence microscopy: Caco-2-VB cells, 1 μM calcein-AM, 30 min, concentration = EC50
T2 construct: Caco-2 VB cells, which overexpress hPGP, were generated by growing Caco-2 cells in the presence of 1 μg/mL vinblastine; endogenous in cells; host or cells: Caco-2 VB (vinblastine-resistant human colorectal adenocarcinoma Caco-2 cells)
Excerpt: as §1
Full details are provided in the Supporting Information.

[3] = Homo sapiens, Caco-2 cell line (Table S3)
[4] = Homo sapiens, Caco-2 cell line, MTT assay (Table 1)

T2 sequence (P08183 whole entry): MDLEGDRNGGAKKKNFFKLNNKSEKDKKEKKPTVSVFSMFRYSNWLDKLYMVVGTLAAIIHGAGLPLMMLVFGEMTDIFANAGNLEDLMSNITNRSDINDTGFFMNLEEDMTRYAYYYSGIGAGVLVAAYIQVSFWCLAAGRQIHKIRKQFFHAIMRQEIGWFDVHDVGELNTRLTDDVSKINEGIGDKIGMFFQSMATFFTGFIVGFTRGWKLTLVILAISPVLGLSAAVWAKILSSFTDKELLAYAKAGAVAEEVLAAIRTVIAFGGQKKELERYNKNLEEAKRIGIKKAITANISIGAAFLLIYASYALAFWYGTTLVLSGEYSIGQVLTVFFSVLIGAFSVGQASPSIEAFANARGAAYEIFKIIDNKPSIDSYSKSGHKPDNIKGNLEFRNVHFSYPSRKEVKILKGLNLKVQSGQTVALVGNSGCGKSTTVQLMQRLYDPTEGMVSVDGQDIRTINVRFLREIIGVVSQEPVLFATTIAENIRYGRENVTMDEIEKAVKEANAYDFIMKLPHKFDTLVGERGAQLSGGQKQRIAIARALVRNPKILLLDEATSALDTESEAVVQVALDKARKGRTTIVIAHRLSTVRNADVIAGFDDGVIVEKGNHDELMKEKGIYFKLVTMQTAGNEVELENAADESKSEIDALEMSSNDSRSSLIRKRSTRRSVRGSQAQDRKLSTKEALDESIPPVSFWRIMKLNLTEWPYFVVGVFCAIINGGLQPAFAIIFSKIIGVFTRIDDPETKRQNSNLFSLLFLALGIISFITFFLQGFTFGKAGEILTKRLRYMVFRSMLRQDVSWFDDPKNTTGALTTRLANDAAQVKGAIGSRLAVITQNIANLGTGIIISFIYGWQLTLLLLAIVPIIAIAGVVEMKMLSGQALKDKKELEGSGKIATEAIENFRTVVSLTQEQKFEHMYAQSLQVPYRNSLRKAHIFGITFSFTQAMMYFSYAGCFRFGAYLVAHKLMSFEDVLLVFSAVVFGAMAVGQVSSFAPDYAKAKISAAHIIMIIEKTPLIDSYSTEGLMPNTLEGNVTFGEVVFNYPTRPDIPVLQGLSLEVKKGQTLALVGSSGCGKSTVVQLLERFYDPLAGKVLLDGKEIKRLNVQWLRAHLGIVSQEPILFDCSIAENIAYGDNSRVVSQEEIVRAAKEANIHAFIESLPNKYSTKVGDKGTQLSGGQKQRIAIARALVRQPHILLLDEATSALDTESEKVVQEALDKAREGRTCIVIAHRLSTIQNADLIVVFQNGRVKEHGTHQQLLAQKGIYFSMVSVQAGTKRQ
T1 sequence (P08183 whole entry): as above

Compound	IC50 [1, 3] [µM]	melting point [°C]	IC50 [1, 4] [µM]	EC50 [2] [µM]	other results
CC(=O)C1=C(C)NC(=O)NC1c1ccc(OCc2cn(-c3c(Cl)cc(Cl)cc3Cl)nn2)cc1 (stereo not shown) [6bf′, 5-Acetyl-6-methyl-4-(4-((1-(2,4,6-trichlorophenyl)-1H-1,2,3-triazol-4-yl)methoxy)phenyl)-3,4-dihydro-pyrimidin-2(1H)-one]	1.5 ± 0.07	135 to 137			
CC(=O)C1=C(C)NC(=O)NC1c1ccc(OCc2cn(-c3cccc(Cl)c3)nn2)cc1 (stereo not shown) [6bd′, 5-Acetyl-4-(4-((1-(3-chlorophenyl)-1H-1,2,3-triazol-4-yl)methoxy)phenyl)-6-methyl-3,4-dihydropyrimidin-2(1H)-one]		142 to 144	0.76 ± 0.06	4.8 ± 0.2	cytotoxic activity in words ([1]; Caco-2 cell line): sub-micromolar
COc1cccc2c1C(=O)c1c(O)c3c(c(O)c1C2=O)C[C@@](O)(C(C)=O)C[C@@H]3O[C@H]1C[C@H](N)[C@H](O)[C@H](C)O1 [daunorubicin, reference compound]			14 ± 2		
CC(=O)C1=C(C)NC(=O)NC1c1ccccc1OCc1cn(-c2ccccc2[N+](=O)[O-])nn1 (stereo not shown) [6ab′, 5-Acetyl-6-methyl-4-(2-((1-(2-nitrophenyl)-1H-1,2,3-triazol-4-yl)methoxy)phenyl)-3,4-dihydropyrimidin-2(1H)-one]		133 to 135	1.3 ± 0.8	15.42 ± 0.06	decrease in potency on replacing chlorine by nitro group ([2]; relative to 6ad′, calcein-AM assay): 5 fold
COc1cc(C2NC(=O)NC(C)=C2C(C)=O)ccc1OCc1cn(-c2ccccc2)nn1 (stereo not shown) [6da′, 5-Acetyl-4-(3-methoxy-4-((1-phenyl-1H-1,2,3-triazol-4-yl)methoxy)phenyl)-6-methyl-3,4-dihydropyrimidin-2(1H)-one]	2.56 ± 0.04	151 to 153			
CC(=O)C1=C(C)NC(=O)NC1c1ccccc1OCc1cn(-c2ccc([N+](=O)[O-])cc2)nn1 (stereo not shown) [6ac′, 5-Acetyl-6-methyl-4-(2-((1-(4-nitrophenyl)-1H-1,2,3-triazol-4-yl)methoxy)phenyl)-3,4-dihydropyrimidin-2(1H)-one]	2 ± 0.53	148 to 150			
CC(=O)C1=C(C)NC(=O)NC1c1ccc(OCc2cn(-c3ccccc3[N+](=O)[O-])nn2)cc1 (stereo not shown) [6bb′, 5-Acetyl-6-methyl-4-(4-((1-(2-nitrophenyl)-1H-1,2,3-triazol-4-yl)methoxy)phenyl)-3,4-dihydropyrimidin-2(1H)-one]	1.6 ± 0.1	157 to 159			
CC(=O)C1=C(C)NC(=O)NC1c1ccccc1OCc1cn(-c2ccccc2)nn1 (stereo not shown) [6aa′, 5-Acetyl-6-methyl-4-(2-((1-phenyl-1H-1,2,3-triazol-4-yl)methoxy)phenyl)-3,4-dihydropyrimidin-2(1H)-one]	1 ± 0.3	145 to 147	1.1 ± 0.2	12.56 ± 0.08	
CC(=O)C1=C(C)NC(=O)NC1c1cc(Br)cc(Br)c1OCc1cn(-c2ccc([N+](=O)[O-])cc2)nn1 (stereo not shown) [6cc′, 5-Acetyl-4-(3,5-dibromo-2-((1-(4-nitrophenyl)-1H-1,2,3-triazol-4-yl)methoxy)phenyl)-6-methyl-3,4-dihydro-pyrimidin-2(1H)-one]		165 to 167	1.25 ± 0.08	8.9 ± 0.1	
CC(=O)C1=C(C)NC(=O)NC1c1ccccc1OCc1cn(-c2cccc(Br)c2)nn1 (stereo not shown) [6ae′]					IC50 ([1]; Caco-2 cell line (Table S3)): 2 ± 1.2 µM
CC(=O)C1=C(C)NC(=O)NC1c1ccc(OCc2cn(-c3ccc([N+](=O)[O-])cc3)nn2)cc1 (stereo not shown) [6bc′, 5-Acetyl-6-methyl-4-(4-((1-(4-nitrophenyl)-1H-1,2,3-triazol-4-yl)methoxy)phenyl)-3,4-dihydropyrimidin-2(1H)-one]	2.44 ± 0.04	134 to 136			
CC(=O)C1=C(C)NC(=O)NC1c1ccccc1OCc1cn(-c2c(Cl)cc(Cl)cc2Cl)nn1 (stereo not shown) [6af′, 5-Acetyl-6-methyl-4-(2-((1-(2,4,6-trichlorophenyl)-1H-1,2,3-triazol-4-yl)methoxy)phenyl)-3,4-dihydro-pyrimidin-2(1H)-one]	3.7 ± 0.3	139 to 141			
COc1ccc(-n2cc(COc3ccc(C4NC(=O)NC(C)=C4C(C)=O)cc3)nn2)c(OC)c1 (stereo not shown) [6bh′, 5-Acetyl-4-(4-((1-(2,4-dimethoxyphenyl)-1H-1,2,3-triazol-4-yl)methoxy)phenyl)-6-methyl-3,4-dihydro-pyrimidin-2(1H)-one]		140 to 142	0.6 ± 0.2	4.2 ± 0.2	
CC(=O)C1=C(C)NC(=O)NC1c1cc(Br)cc(Br)c1OCc1cn(-c2ccccc2)nn1 (stereo not shown) [6ca′, 5-Acetyl-4-(3,5-dibromo-2-((1-phenyl-1H-1,2,3-triazol-4-yl)methoxy)phenyl)-6-methyl-3,4-dihydropyrimidin-2(1H)-one]		157 to 159	0.9 ± 0.1	4 ± 0.2	intracellular calcein retention by fluorescence microscopy (hPgp): confirmed intracellular calcein retention
CC(=O)C1=C(C)NC(=O)NC1c1ccccc1OCc1cn(-c2cccc(Cl)c2)nn1 (stereo not shown) [6ad′, 5-Acetyl-4-(2-((1-(3-chlorophenyl)-1H-1,2,3-triazol-4-yl)methoxy)phenyl)-6-methyl-3,4-dihydropyrimi-din-2(1H)-one]		130 to 132	0.57 ± 0.03	3.14 ± 0.03	intracellular calcein retention by fluorescence microscopy (hPgp): confirmed intracellular calcein retention; modulation of hPgp function compared with cyclosporin A or verapamil (statistical analysis) (hPgp; calcein retention, p < 0.0001): better modulator of hPgp function; cytotoxic activity in words ([1]; Caco-2 cell line): sub-micromolar
CC(=O)C1=C(C)NC(=O)NC1c1ccc(OCc2cn(-c3ccccc3)nn2)cc1 (stereo not shown) [6ba′, 5-Acetyl-6-methyl-4-(4-((1-phenyl-1H-1,2,3-triazol-4-yl)methoxy)phenyl)-3,4-dihydropyrimidin-2(1H)-one]	2.2 ± 0.2	133 to 135			
COc1cc(C2NC(=O)NC(C)=C2C(C)=O)ccc1OCc1cn(-c2ccccc2[N+](=O)[O-])nn1 (stereo not shown) [6db′, 5-Acetyl-4-(3-methoxy-4-((1-(2-nitrophenyl)-1H-1,2,3-triazol-4-yl)methoxy)phenyl)-6-methyl-3,4-dihydropyri-midin-2(1H)-one]					IC50 ([1]; Caco-2 cell line (Table S3)): 2.29 ± 0.09 µM
COc1cc(C2NC(=O)NC(C)=C2C(C)=O)ccc1OCc1cn(-c2ccc([N+](=O)[O-])cc2)nn1 (stereo not shown) [6dc′, 5-Acetyl-4-(3-methoxy-4-((1-(4-nitrophenyl)-1H-1,2,3-triazol-4-yl)methoxy)phenyl)-6-methyl-3,4-dihydro-pyrimidin-2(1H)-one]	2.97 ± 0.03	159 to 161			
CC(=O)C1=C(C)NC(=O)NC1c1cc(Br)cc(Br)c1OCc1cn(-c2ccccc2[N+](=O)[O-])nn1 (stereo not shown) [6cb′, 5-Acetyl-4-(3,5-dibromo-2-((1-(2-nitrophenyl)-1H-1,2,3-triazol-4-yl)methoxy)phenyl)-6-methyl-3,4-dihydro-pyrimidin-2(1H)-one]		167 to 169	1.22 ± 0.08	3.4 ± 0.3	intracellular calcein retention by fluorescence microscopy (hPgp): confirmed intracellular calcein retention
Nc1ccn([C@@H]2O[C@H](CO)[C@@H](O)C2(F)F)c(=O)n1 [gemcitabine, reference compound]	4.5 ± 0.98		5 ± 1		
CC(=O)C1=C(C)NC(=O)NC1c1ccc(OCc2cn(-c3cccc(Br)c3)nn2)cc1 (stereo not shown) [6be′, 5-Acetyl-4-(4-((1-(3-bromophenyl)-1H-1,2,3-triazol-4-yl)methoxy)phenyl)-6-methyl-3,4-dihydropyrimidin-2(1H)-one]		138 to 140	0.8 ± 0.1	9.25 ± 0.02	cytotoxic activity in words ([1]; Caco-2 cell line): sub-micromolar
N.N.O=C([O-])C1(C(=O)[O-])CCC1.[Pt+2] [carboplatin, reference compound]					IC50 ([1]; Caco-2 cell line, MTT assay (Table 1)): 7 ± 2 µM
